US6706709B2, “Indolinone derivatives as protein kinase/phosphatase inhibitors” (Sugen, Inc., priority 2000, dated 2004)

Legend:
[1] = target: GST-Flk1 (UniProt P35918); test: GST-FLK-1 bioassay (bio flkGST); assay type: biochemical
Procedure, shortened: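 ELISA with Sf9-expressed GST-Flk1cd (5 ng/well) phosphorylating plate-coated poly(Glu,Tyr) 4:1 in Hepes pH 7.5 with MnCl2 and ATP (2 μM as 4× stock), 15 min at room temperature; EDTA stop. Phosphotyrosine detected with PY99-HRP and ABTS at 410 nm.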

[2] = target: T1, EGF Receptor (Homo sapiens, UniProt P00533); test: bio EGF (EGF Receptor ELISA); assay type: biochemical
T1 construct: expressed in transfected cells; host or cells: NIH 3T3/C7 (mouse fibroblasts engineered to express human EGF-R)
T1 sequence (P00533 25-1210): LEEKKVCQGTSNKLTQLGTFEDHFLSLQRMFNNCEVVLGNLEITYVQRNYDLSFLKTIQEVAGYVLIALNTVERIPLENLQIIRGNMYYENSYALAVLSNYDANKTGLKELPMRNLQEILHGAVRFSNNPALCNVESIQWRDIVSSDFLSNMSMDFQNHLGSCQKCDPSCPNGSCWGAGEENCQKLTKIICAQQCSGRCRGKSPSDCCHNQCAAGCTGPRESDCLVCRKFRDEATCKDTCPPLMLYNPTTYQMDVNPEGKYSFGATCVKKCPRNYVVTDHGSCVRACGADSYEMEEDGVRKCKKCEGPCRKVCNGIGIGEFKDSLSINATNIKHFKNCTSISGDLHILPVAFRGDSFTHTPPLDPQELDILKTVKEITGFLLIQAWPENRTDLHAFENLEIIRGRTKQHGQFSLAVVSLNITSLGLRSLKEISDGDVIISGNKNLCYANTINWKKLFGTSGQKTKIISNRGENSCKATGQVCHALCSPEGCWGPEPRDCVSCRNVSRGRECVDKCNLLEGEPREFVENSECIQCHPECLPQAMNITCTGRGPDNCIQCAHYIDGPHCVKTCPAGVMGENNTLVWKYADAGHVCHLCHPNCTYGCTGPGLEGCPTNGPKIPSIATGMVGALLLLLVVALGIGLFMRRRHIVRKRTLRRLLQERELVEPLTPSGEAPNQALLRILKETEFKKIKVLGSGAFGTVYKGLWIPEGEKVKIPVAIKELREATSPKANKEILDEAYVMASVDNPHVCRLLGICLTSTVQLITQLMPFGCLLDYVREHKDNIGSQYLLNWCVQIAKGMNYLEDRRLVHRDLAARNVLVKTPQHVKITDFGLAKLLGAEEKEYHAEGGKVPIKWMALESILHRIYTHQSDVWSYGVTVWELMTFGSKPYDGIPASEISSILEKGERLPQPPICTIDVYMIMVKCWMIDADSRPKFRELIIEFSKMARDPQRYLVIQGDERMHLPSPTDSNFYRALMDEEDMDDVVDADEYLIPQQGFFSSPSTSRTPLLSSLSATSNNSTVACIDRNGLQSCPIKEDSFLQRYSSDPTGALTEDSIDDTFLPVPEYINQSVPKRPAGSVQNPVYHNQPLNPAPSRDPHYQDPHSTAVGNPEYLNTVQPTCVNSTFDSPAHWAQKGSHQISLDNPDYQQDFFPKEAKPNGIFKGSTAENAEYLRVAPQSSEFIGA
Procedure, shortened: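 Cells engineered to express human EGFR, seeded in 0.5% serum for ~40 h, then exposed to drug (stock diluted to 1:200 final, 1% DMSO) before 5 min EGF stimulation at 25 nM final. Lysates captured on anti-EGFR-coated plates, and phosphotyrosine detected by anti-pTyr/HRP ELISA at 410 nm. Percent inhibition calculated relative to control wells after negative-control subtraction.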

SMILES	IC50 [1] [µM]	IC50 [2] [µM]
O=C1Nc2ccc(S(=O)(=O)Nc3cccnc3)cc2C1=Cc1cc2cc(OCCN3CCCC3)ccc2[nH]1 [IN-045, 2-oxo-3-[5-(2-pyrrolidin-1-yl-ethoxy)-1H-indol-2-ylmethylene]-2,3-dihydro-1H-indole-5-sulfonic acid pyridin-3-ylamide]	0.12	8.02
O=C1Nc2ccc(S(=O)(=O)N3CCc4ccccc43)cc2C1=Cc1cc2cc(OCCN3CCCC3)ccc2[nH]1 [IN-046, 5-(2,3-dihydro-indole-1-sulfonyl)-3-[5-(2-pyrrolidin-1-yl-ethoxy)-1H-indol-2-ylmethylene]-1,3-dihydro-indol-2-one]	1.05	1.23
O=C1Nc2ccc(S(=O)(=O)Nc3cccc(Cl)c3)cc2C1=Cc1cc2cc(OCCN3CCCC3)ccc2[nH]1 [IN-047, 2-oxo-3-[5-(2-pyrrolidin-1-yl-ethoxy)-1H-indol-2-ylmethylene]-2,3-dihydro-1H-indole-5-sulfonic acid (3-chloro-phenyl)-amide]	0.39	0.87
CN(c1cccc(Cl)c1)S(=O)(=O)c1ccc2c(c1)C(=Cc1cc3cc(OCCN4CCCC4)ccc3[nH]1)C(=O)N2 [IN-048, 2-oxo-3-[5-(2-pyrrolidin-1-yl-ethoxy)-1H-indol-2-ylmethylene]-2,3-dihydro-1H-indole-5-sulfonic acid (3-chloro-phenyl)-methyl-amide]	1.16	2.13
O=C1Nc2ccc(S(=O)(=O)Nc3ccc(Cl)cc3F)cc2C1=Cc1cc2cc(OCCN3CCCC3)ccc2[nH]1 [IN-049, 2-oxo-3-[5-(2-pyrrolidin-1-yl-ethoxy)-1H-indol-2-ylmethylene]-2,3-dihydro-1H-indole-5-sulfonic acid (4-chloro-2-fluoro-phenyl)-amide]	0.13	4.38
O=C1Nc2ccc(S(=O)(=O)N3CCCc4ccccc43)cc2C1=Cc1cc2cc(OCCN3CCCC3)ccc2[nH]1 [IN-050, 5-(3,4-dihydro-2H-quinoline-1-sulfonyl)-3-[5-(2-pyrrolidin-1-yl-ethoxy)-1H-indol-2-ylmethylene]-1,3-dihydro-indol-2-one]	0.71	2.4
O=C1Nc2ccc(S(=O)(=O)N3CCc4ccccc4C3)cc2C1=Cc1cc2cc(OCCN3CCCC3)ccc2[nH]1 [IN-051, 5-(3,4-dihydro-1H-isoquinoline-2-sulfonyl)-3-[5-(2-pyrrolidin-1-yl-ethoxy)-1H-indol-2-ylmethylene]-1,3-dihydro-indol-2-one]	0.37	3.52
O=C1Nc2ccc(S(=O)(=O)N3CCc4cc(Br)ccc43)cc2C1=Cc1cc2cc(OCCN3CCCC3)ccc2[nH]1 [IN-052, 5-(5-bromo-2,3-dihydro-indole-1-sulfonyl)-3-[5-(2-pyrrolidin-1-yl-ethoxy)-1H-indol-2-ylmethylene]-1,3-dihydro-indol-2-one]	1.02	1.16
CNS(=O)(=O)c1ccc2c(c1)C(=Cc1cc3cc(OCCN4CCOCC4)ccc3[nH]1)C(=O)N2 [IN-053, 3-[5-(2-morpholin-4-yl-ethoxy)-1H-indol-2-ylmethylene]-2-oxo-2,3-dihydro-1H-indole-5-sulfonic acid methylamide]	1.21	15.2
CN(C)S(=O)(=O)c1ccc2c(c1)C(=Cc1cc3cc(OCCN4CCOCC4)ccc3[nH]1)C(=O)N2 [IN-054, 3-[5-(2-morpholin-4-yl-ethoxy)-1H-indol-2-ylmethylene]-2-oxo-2,3-dihydro-1H-indole-5-sulfonic acid dimethylamide]	4.28	> 20
CC(C)NS(=O)(=O)c1ccc2c(c1)C(=Cc1cc3cc(OCCN4CCOCC4)ccc3[nH]1)C(=O)N2 [IN-055, 3-[5-(2-morpholin-4-yl-ethoxy)-1H-indol-2-ylmethylene]-2-oxo-2,3-dihydro-1H-indole-5-sulfonic acid isopropylamide]	1.5	3.5
O=C1Nc2ccc(S(=O)(=O)Nc3ccccc3)cc2C1=Cc1cc2cc(OCCN3CCOCC3)ccc2[nH]1 [IN-056, 3-[5-(2-morpholin-4-yl-ethoxy)-1H-indol-2-ylmethylene]-2-oxo-2,3-dihydro-1H-indole-5-sulfonic acid phenylamide]	9.96	15.5
O=C1Nc2ccc(S(=O)(=O)Nc3cccnc3)cc2C1=Cc1cc2cc(OCCN3CCOCC3)ccc2[nH]1 [IN-057, 3-[5-(2-morpholin-4-yl-ethoxy)-1H-indol-2-ylmethylene]-2-oxo-2,3-dihydro-1H-indole-5-sulfonic acid pyridin-3-ylamide]	> 20	> 20
O=C1Nc2ccc(S(=O)(=O)N3CCc4ccccc43)cc2C1=Cc1cc2cc(OCCN3CCOCC3)ccc2[nH]1 [IN-058, 5-(2,3-dihydro-indole-1-sulfonyl)-3-[5-(2-morpholin-4-yl-ethoxy)-1H-indol-2-ylmethylene]-1,3-dihydro-indol-2-one]	8.49	> 20
O=C1Nc2ccc(S(=O)(=O)Nc3cccc(Cl)c3)cc2C1=Cc1cc2cc(OCCN3CCOCC3)ccc2[nH]1 [IN-059, 3-[5-(2-morpholin-4-yl-ethoxy)-1H-indol-2-ylmethylene]-2-oxo-2,3-dihydro-1H-indole-5-sulfonic acid (3-chloro-phenyl)-amide]	0.63	> 20
CN(c1cccc(Cl)c1)S(=O)(=O)c1ccc2c(c1)C(=Cc1cc3cc(OCCN4CCOCC4)ccc3[nH]1)C(=O)N2 [IN-060, 3-[5-(2-morpholin-4-yl-ethoxy)-1H-indol-2-ylmethylene]-2-oxo-2,3-dihydro-1H-indole-5-sulfonic acid (3-chloro-phenyl)-methyl-amide]	8.55	> 20

Further lines, results first:

IC50 [1] [µM]	IC50 [2] [µM]	SMILES
0.39	4.46	O=C1Nc2ccc(S(=O)(=O)Nc3ccc(Cl)cc3F)cc2C1=Cc1cc2cc(OCCN3CCOCC3)ccc2[nH]1 [IN-061, 3-[5-(2-morpholin-4-yl-ethoxy)-1H-indol-2-ylmethylene]-2-oxo-2,3-dihydro-1H-indole-5-sulfonic acid (4-chloro-2-fluoro-phenyl)-amide]
15.4	> 20	O=C1Nc2ccc(S(=O)(=O)N3CCCc4ccccc43)cc2C1=Cc1cc2cc(OCCN3CCOCC3)ccc2[nH]1 [IN-062, 5-(3,4-dihydro-2H-quinoline-1-sulfonyl)-3-[5-(2-morpholin-4-yl-ethoxy)-1H-indol-2-ylmethylene]-1,3-dihydro-indol-2-one]
14.3	> 20	O=C1Nc2ccc(S(=O)(=O)N3CCc4ccccc4C3)cc2C1=Cc1cc2cc(OCCN3CCOCC3)ccc2[nH]1 [IN-063, 5-(3,4-dihydro-1H-isoquinoline-2-sulfonyl)-3-[5-(2-morpholin-4-yl-ethoxy)-1H-indol-2-ylmethylene]-1,3-dihydro-indol-2-one]
17.8	> 20	O=C1Nc2ccc(S(=O)(=O)N3CCc4cc(Br)ccc43)cc2C1=Cc1cc2cc(OCCN3CCOCC3)ccc2[nH]1 [IN-064, 5-(5-bromo-2,3-dihydro-indole-1-sulfonyl)-3-[5-(2-morpholin-4-yl-ethoxy)-1H-indol-2-ylmethylene]-1,3-dihydro-indol-2-one]
> 20	> 100	Cc1[nH]c2ccccc2c1C=C1C(=O)Nc2ccc(S(N)(=O)=O)cc21 [IN-066, 3-(2-methyl-1H-indol-3-ylmethylene)-2-oxo-2,3-dihydro-1H-indole-5-sulfonic acid amide]
3.99	> 100	NS(=O)(=O)c1ccc2c(c1)C(=Cc1ccc3[nH]ccc3c1)C(=O)N2 [IN-067, 3-(1H-indol-5-ylmethylene)-2-oxo-2,3-dihydro-1H-indole-5-sulfonic acid amide]
> 20	> 100	CNS(=O)(=O)c1ccc2c(c1)C(=Cc1c[nH]c3ccccc13)C(=O)N2 [IN-068, 3-(1H-indol-3-ylmethylene)-2-oxo-2,3-dihydro-1H-indole-5-sulfonic acid methylamide]
12.8	> 100	CNS(=O)(=O)c1ccc2c(c1)C(=Cc1c(C)[nH]c3ccccc13)C(=O)N2 [IN-069, 3-(2-methyl-1H-indol-3-ylmethylene)-2-oxo-2,3-dihydro-1H-indole-5-sulfonic acid methylamide]
2.33	> 100	CNS(=O)(=O)c1ccc2c(c1)C(=Cc1ccc3[nH]ccc3c1)C(=O)N2 [IN-070, 3-(1H-indol-5-ylmethylene)-2-oxo-2,3-dihydro-1H-indole-5-sulfonic acid methylamide]
11.5	22	CNS(=O)(=O)c1ccc2c(c1)C(=Cc1cc3ccccc3[nH]1)C(=O)N2 [IN-071, 3-(1H-indol-2-ylmethylene)-2-oxo-2,3-dihydro-1H-indole-5-sulfonic acid methylamide]
> 20	> 100	CN(C)S(=O)(=O)c1ccc2c(c1)C(=Cc1c[nH]c3ccccc13)C(=O)N2 [IN-072, 3-(1H-indol-3-ylmethylene)-2-oxo-2,3-dihydro-1H-indole-5-sulfonic acid dimethylamide]
> 20	> 100	Cc1[nH]c2ccccc2c1C=C1C(=O)Nc2ccc(S(=O)(=O)N(C)C)cc21 [IN-073, 3-(2-methyl-1H-indol-3-ylmethylene)-2-oxo-2,3-dihydro-1H-indole-5-sulfonic acid dimethylamide]
1.58	> 100	CN(C)S(=O)(=O)c1ccc2c(c1)C(=Cc1ccc3[nH]ccc3c1)C(=O)N2 [IN-074, 3-(1H-indol-5-ylmethylene)-2-oxo-2,3-dihydro-1H-indole-5-sulfonic acid dimethylamide]
